Assay results: ChEMBL document CHEMBL2202953, “Structure-based redesign of an edema toxin inhibitor” (Bioorg Med Chem, 2012)

What was measured:
[1] = molecular target: T1, Calmodulin-sensitive adenylate cyclase (Bacillus anthracis, UniProt P40136); type: cell-based, RAW264.7
T1 sequence (P40136 whole entry): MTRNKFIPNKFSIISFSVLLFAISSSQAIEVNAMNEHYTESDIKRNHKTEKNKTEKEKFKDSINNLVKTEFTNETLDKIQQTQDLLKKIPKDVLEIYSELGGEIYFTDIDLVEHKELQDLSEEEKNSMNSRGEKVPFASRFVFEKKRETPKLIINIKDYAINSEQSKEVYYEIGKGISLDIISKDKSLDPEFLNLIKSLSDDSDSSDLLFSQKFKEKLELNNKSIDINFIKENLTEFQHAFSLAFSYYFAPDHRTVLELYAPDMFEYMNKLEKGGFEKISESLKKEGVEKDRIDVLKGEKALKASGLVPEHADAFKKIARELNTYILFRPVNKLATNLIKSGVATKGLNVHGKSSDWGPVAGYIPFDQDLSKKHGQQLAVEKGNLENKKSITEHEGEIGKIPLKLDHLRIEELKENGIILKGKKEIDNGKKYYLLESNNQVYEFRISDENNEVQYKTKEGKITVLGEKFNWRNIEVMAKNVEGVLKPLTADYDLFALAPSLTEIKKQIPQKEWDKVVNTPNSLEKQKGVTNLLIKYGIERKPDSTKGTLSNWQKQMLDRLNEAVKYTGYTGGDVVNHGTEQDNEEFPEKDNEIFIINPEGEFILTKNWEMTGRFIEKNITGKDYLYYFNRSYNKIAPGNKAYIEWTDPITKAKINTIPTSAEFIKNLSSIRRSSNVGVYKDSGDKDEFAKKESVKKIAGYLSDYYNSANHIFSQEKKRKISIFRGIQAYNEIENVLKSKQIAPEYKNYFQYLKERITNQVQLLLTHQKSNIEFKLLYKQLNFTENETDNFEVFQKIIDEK

[2] = Genotoxicity against human GenM-T01 cells assessed as induction of GFP expression after 48 hrs by GADD45alpha-GFP assay; type: toxicity, cell-based; settings: genm-t01, 48 h
Salmonella typhimurium [3] = assay: Mutagenicity in Salmonella typhimurium TA98 at 0.975 ug/mL to 1000 ug/mL after 48 hrs in presence of liver S9 fraction by Ames test; type: toxicity, organism-based; settings: salmonella enterica subsp. enterica serovar typhimurium, s9, 48 h
[4] = Cytotoxic activity against human GenM-T01 cells after 48 hrs; type: cell-based; settings: genm-t01, 48 h
[5] = Cytotoxic activity against human GenM-T01 cells after 24 hrs; type: cell-based; settings: genm-t01, 24 h
[6] = Genotoxicity against human GenM-T01 cells assessed as induction of GFP expression after 24 hrs by GADD45alpha-GFP assay; type: toxicity, cell-based; settings: genm-t01, 24 h
[7] = Cytotoxic activity against human GenM-C01 cells after 48 hrs; type: cell-based; settings: genm-c01, 48 h
Salmonella typhimurium [8] = assay: Mutagenicity in Salmonella typhimurium TAMix at 0.975 ug/mL to 1000 ug/mL after 48 hrs in absence of liver S9 fraction by Ames test; type: toxicity, organism-based; settings: salmonella enterica subsp. enterica serovar typhimurium
Salmonella typhimurium [9] = assay: Mutagenicity in Salmonella typhimurium TAMix at 0.975 ug/mL to 1000 ug/mL after 48 hrs in presence of liver S9 fraction by Ames test; type: toxicity, organism-based; settings: salmonella enterica subsp. enterica serovar typhimurium, s9, 48 h
Salmonella typhimurium [10] = assay: Mutagenicity in Salmonella typhimurium TA98 at 0.975 ug/mL to 1000 ug/mL after 48 hrs in absence of liver S9 fraction by Ames test; type: toxicity, organism-based; settings: salmonella enterica subsp. enterica serovar typhimurium

O=C(O)c1cccc(NC(=O)c2ccccc2)c1
IC50 [1]: > 100 µM

COC(=O)c1cccc(NC(=O)c2cccc(-c3ccccc3)c2)c1
IC50 [1]: 19 µM

COC(=O)c1cccc(NC(=O)c2cccc3c2C(=O)c2ccccc2-3)c1
IC50 [1]: 11 µM

Nc1ccc(NC(=O)c2cccc3c2C(=O)c2ccccc2-3)c(C(=O)O)c1
IC50 [1]: 80 µM

Nc1ccc(NC(=O)c2cccc3c2C(=O)c2ccccc2-3)cc1C(=O)O
IC50 [1]: 6.08 µM

O=C(O)c1cccc(NC(=O)c2cccc3c2C(=O)c2ccccc2-3)c1Cl
IC50 [1]: 9.21 µM

COC(=O)c1cc(NC(=O)c2cccc3c2C(=O)c2ccccc2-3)ccc1O
IC50 [1]: > 100 µM

CSc1cccc(NC(=O)c2cccc3c2C(=O)c2ccccc2-3)c1
IC50 [1]: 26 µM

O=C(Nc1cccc(OC(F)(F)F)c1)c1cccc2c1C(=O)c1ccccc1-2
IC50 [1]: 6.8 µM

O=C(NO)c1cccc(NC(=O)c2cccc3c2C(=O)c2ccccc2-3)c1
IC50 [1]: 12.9 µM

O=C(O)c1cccc(NC(=O)c2cccc3c2C(=O)c2ccccc2-3)c1
MTC [2]: 62.5 µg/mL
Activity (Salmonella typhimurium [3]): Non-toxic
MTC [4]: 62.5 µg/mL
MTC [5]: 62.5 µg/mL
MTC [6]: 62.5 µg/mL
MTC [7]: 62.5 µg/mL
Activity (Salmonella typhimurium [8]): Non-toxic
Activity (Salmonella typhimurium [9]): Non-toxic
Activity (Salmonella typhimurium [10]): Non-toxic
